Values quoted from earlier work as cited in US12257342B2, “Phenylephrine hydrochloride ready-to-use solution” (Hikma Pharmaceuticals USA Inc., priority 2015, dated 2025).

System: α−1 adrenergic receptor
Settings: following an intravenous bolus administration

For `CNC[C@H](O)c1cccc(O)c1.Cl` [Phenylephrine hydrochloride, (−)-m-Hydroxy-α-[(methylamino)methyl]benzyl alcohol hydrochloride], the “onset of blood pressure increase” value is listed as “rapid” and the “persistence of the blood pressure effect” value is listed as “up to 20 minutes”.
